Results published in US12491187B2, “Use of MCT1 inhibitors to enhance insulin sensitivity” (H. LEE MOFFIT CANCER CENTER AND RESEARCH INSTITUTE, INC., priority 2022, dated 2025).

Columns and labels:
Type in all cases: cell-based, murine
[1] = tested on: differentiated 3T3-L1 adipocytes; assay: Ki67 expression (confocal microscopy and quantification); settings: 1 μM, 24 hr, vs untreated adipocytes
Description: Confocal Microscopy: Cells were seeded and differentiated on 8 chamber μ-Slides (Ibidi®). Differentiated cells treated with vehicle (DMSO) or 1 μM AZD3965 for 24 hr were fixed in 4% PFA for 10 min at room temperature, permeabilized with 0.1% Triton™ X-100 in PBS and blocked with 3% BSA in PBS for an hr. Cells were subsequently incubated with Ki67 antibody (NBP2-22112, Novus Biologicals) at a 1:500 dilution in PBS 3% BSA overnight at 4° C. Cells were washed with PBS and incubated with goat anti-rabbit Alexa Fluor 647 secondary antibody (Invitrogen) at 1:2000 dilution in PBS 3% BSA for 1 hr. Lipid droplets were stained with BODIPY® (Invitrogen) for 20 min at room temperature according to the manufacturer's recommendations. Nuclei were stained for 20 min at room temperature with 4,6-diamidino-2-phenylindole (DAPI) (Sigma-Aldrich) in PBS 3% BSA, diluted at 1:5000 from a 1 mg/ml stock. Images were acquired on the Leica TCS SP8 laser scanning confocal microscope Leica Microsystems) at a magnification of 630× with 3× zoom. Ki67 Expression Quantification: Slides were prepared as outlined in ‘Confocal Microscopy’, After staining, Ki67 expression was imaged and analyzed on the Cytation 5 Cell Imaging Multi-Mode reader (BioTek Instruments) through the measure of fluorescence intensity and deep red fluorescent (Alexa647) positive pixels. […]

[2] = tested on: differentiated 3T3-L1 adipocytes; assay: Hyperplasia (intracellular triglycerides, Triglyceride-Glo)
Description: Hyperplasia (Intracellular Triglycerides): 3T3-L1 cells were seeded and differentiated in clear bottom 96-well plates (Corning®). After differentiation, cells were treated with or without 1 μM AZD3965 for 24 hr, 48 hr or 72 hr. After compound incubation, media was changed to normal growth media with or without 100 nM insulin and cultured for an additional 72 hrs. Upon completion of the second incubation period, adipocytes were lysed and subjected to the Triglyceride-Glo™ Assay (Promega®) according to the manufacturer's instructions. The luminescent signal produced is proportional to the amount of triglycerides detected within the sample. Luminescence was read on a spectrophotometer (FlexStation 3; Molecular Devices).

[3] = tested on: differentiated 3T3-L1 cells; assay: Proliferation (CyQUANT NF) of differentiated adipocytes; settings: 72 hr treatment, all concentrations ≥1 μM
Description: Proliferation: 3T3-L1 cells were seeded and differentiated in black clear bottom 96-well plates (Corning®). After differentiation, wells were treated with vehicle or AZD3965 concentrations ranging from 10 nM to 10 µM for 24 hr, 48 hr or 72 hr as indicated. Cell viability was measured at the end of each treatment time using the CyQUANT™ NF Cell Proliferation assay (Invitrogen™) according to the manufacturer's protocols.

[4] = tested on: differentiated 3T3-L1 adipocytes; assay: Adipokine antibody array on conditioned media; settings: 72 hr treatment, media conditioned 24 hr
Description: Adipokine Antibody Array: 3T3-L1 cells were differentiated and treated with or without AZD3965 for 72 hr. After this incubation, media was replenished, and adipocytes were cultured for an additional 24 hr to allow for adipokine secretion and media conditioning. Media was collected and analyzed for adipokine secretion with the Proteome Profiler Mouse Adipokine Array Kit (R&D Systems) according to the manufacturer's instructions. Chemiluminescence was detected with the LI-COR Odyssey® XF Imaging System with a 2 minute exposure time. Positive signals were quantified using Image Studio™ (LI-COR Biosciences) to quantify signal intensity. Data presented represent signal intensity normalized by the signal intensity of reference antibodies within the array.

[5] = tested on: 3T3-L1-shScramble cells; assay: Glucose uptake (Glucose Uptake-Glo) in shScramble control cells; settings: 1 μM for 72 hr, 175 nM insulin
Description: Cell Line Development: Lenti plasmid vectors containing shRNA targeting MCT1 or a shScramble sequence were purchased from Genocopia. Lentiviral particles were produced using HEK293T cells and a third-generation packaging system, MISSION Lentiviral Packaging Mix, as per manufacturer's (Sigma-Aldrich) recommendations. To generate shMCT1 cells, 3T3-L1 cells were seeded and transduced with optimized titers of freshly harvested lentivirus. 12 hr after transduction, medium was changed, and cells were allowed to recover for 24 h before being placed under antibiotic selection (2 μg/mL puromycin [Clontech]) for 3-6 days. Cells surviving antibiotic selection were harvested for both reverse transcription quantitative chain polymerase reaction (RT-qPCR) and immunoblotting analyses.
Glucose Uptake: 3T3-L1 cells were seeded and differentiated in clear bottom 96-well plates (Corning®). After differentiation, cells were treated with or without […] AZD3965 for 24 hr, 48 hr or 72 hr as illustrated in FIG. 7 (schematic outline of experimental procedure). The cells were incubated in serum free media the night before performing the assay. […] Glucose Uptake was measured using the Glucose Uptake-Glo™ Assay (Promega®) according to the manufacturer's protocol. The data generated were normalized by dividing the relative luminescence units (RLU) measured in insulin stimulated wells by vehicle treated controls. […]

[6] = tested on: differentiated 3T3-L1 cells; assay: RT-qPCR of mRNA levels in differentiated adipocytes
Description: RT-qPCR: RNA was harvested from preadipocytes using the RNeasy® Plus Mini Kit as per manufacturer's recommendations (Qiagen). For differentiated adipocytes, RNA was collected and isolated using TRIzol (Thermo Fisher Scientific) according to the manufacturer's instructions. Quantification of RNA was performed using the Nanodrop 1000 Spectrophotometer. RNA (2 μg) was reverse transcribed using Superscript III First Strand synthesis kit (Invitrogen). RT-qPCR detection with SYBR green was performed with the resulting cDNA and a 50/50 forward primer: reverse primer ratio using the QuantStudio™ 5 (Applied Biosystems™). Oligonucleotide primer sequences used in this study can be found in the table below.

[7] = differentiated adipocytes, 1 μM, 24 hr
[8] = mature adipocytes, 24 hr treatment

**Q.** Which results are given for `Cc1[nH]nc(C(F)(F)F)c1Cc1sc2c(c1C(=O)N1C[C@](C)(O)CO1)c(=O)n(C)c(=O)n2C(C)C` [AZD3965, 5-[[(4S)-4-hydroxy-4-methyl-2-isoxazolidinyl]carbonyl]-3-methyl-1-(1-methylethyl)-6-[[5-methyl-3-(trifluoromethyl)-1H-pyrazol-4-yl]methyl]-thieno[2,3-d]pyrimidine-2,4 (1H, 3H)-dione]?
**A.** expression of Ki67 [1]: significant increase; total triglyceride content ([2]; pretreated 1 μM 24 hr and 72 hr, then cultured 72 hr with 100 nM insulin): did not reach statistical significance; total triglyceride content ([2]; pretreated 1 μM 48 hr, then cultured 72 hr with 100 nM insulin): significantly more triglycerides; total triglyceride content ([2]; pretreated 1 μM up to 72 hr, then cultured 72 hr without insulin): significantly more triglycerides; total cell number (proliferation) [3]: significant increase in total cell number; adipokine levels in conditioned media [4]: no significant differences; insulin-stimulated glucose uptake [5]: augmented; CDK1 mRNA level [6, 7]: significant upregulation; Cyclin B mRNA level [6, 7]: significant upregulation; PLK1 mRNA level [6, 7]: significant upregulation; TOP2A mRNA level [6, 7]: significant upregulation; FABP4 mRNA levels [6, 8]: significantly increased; HSL mRNA levels [6, 8]: significantly decreased; PPARγ transcript levels [6, 8]: significant decrease
